Ends that are not written are not given here.
What was measured:
[1] = test system: ACTH release in intact male rats; test: ACTH secretion in vivo; parameters: species or system rat; settings: i.p. 2 nmoles/kg, 30 min, FIG. 4b
Experimental: (§1) FIG. 4. […] ACTH contents in culture media and serum were determined using a radioimmunoassay. For in vivo studies, male rats were injected i.p. with test peptides (2 nmoles/kg B.W.) and sacrificed 30 mm later. Data are mean SEM (N=4). FIG. 4c. Anti-edema response regulated by stresscopins. Stresscopin 1 (20 nmoles/kg), stresscopin 2 (100 nmoles/kg), and related hormones (20 nmoles/kg) suppress heat-induced paw edema formation in anaesthetized rats (N=6). FIG. 4d. Cumulative food intake in mice treated with stresscopin 1 (left panel, N=6) and stresscopin 2 (right panel, N=4) peptides and other hormones at 2, 4, and 8 h after treatment. FIG. 4e. Reduction of gastric emptying by stresscopin 1 (blank bars, 8 nmoles/kg; hatched bars, 80 nmoles/kg), stresscopin 2 (blank bars, 80 nmoles/kg; hatched bars, 200 nmoles/kg), and related hormones (blank bars, 8 nmoles/kg; hatched bars, 80 nmoles/kg) at 2 h after hormone treatment (N=6). The rates of gastric emptying were calculated by the formula (wet weight of stomach at 2 h after treatment/wet weight of stomach in fed animals sacrificed at 0 h). SCP1 is stresscopin 1; SCP2 is stresscopin 2; UCN is urocortin; SCP1 (11-43) is truncated stresscopin 1 with the first 10 amino acids deleted.
(§2) In Vivo and in Vitro assay of pituitary ACTH releasing activity. Anterior pituitaries were obtained from 6-week-old male Sprague-Dawley rats. […]

recombinant CRHR2 = test: cAMP production by 293T cells transfected with recombinant CRHR2 (two isoforms); type: cell-based; settings: for cAMP production mediated by recombinant CRHR2: 293T cells transiently transfected, two isoforms of CRHR2 (FIGS. 3c-3d)
Experimental: (§3) FIG. 3. […] Hormonal stimulation of cAMP production by FIG. 3a. CRHR2-containing rat cardiac A7r5 cells, FIG. 3b. CRHR1-containing human retinoblastoma Y79 cells, FIG. 3c. recombinant CRHR2, FIG. 3d. recombinant CRHR2 and, FIG. 3e. recombinant CRHR1. Cells incubated with the test peptide or vehicle were harvested at 16 h after treatment and heated to 95° C. for 5 mm to inactivate phosphodiesterase activity before cAMP measurement. FIG. 3f. […] Data are the mean SEM (N=4). SCP1-0.1, stresscopin 1 (0.1 nM); SCP1, stresscopin 1 (1 nM); SCP1(2-43), truncated stresscopin 1 with the first amino acid deleted; SCP1 (3-43), truncated stresscopin 1 with 2-amino-acid deletion; SCP1 (4-43), truncated stresscopin 1 with 3-amino-acid deletion; SCP1 (5-43), truncated stresscopin 1 with 4-amino-acid deletion; SCP1 (6-43), truncated stresscopin 1 with 5-amino-acid deletion; SCP1-NA-0.1, full-length stresscopin 1 devoid of amidation at the C-terminus (0.1 nM); SCP1-NA, full-length stresscopin 1 devoid of amidation at the C-terminus (1 nM); UCN, urocortin. FIGS. 3g and 3h. […] Data are mean SEM (N=3).
(§4) The receptor cDNA fragments were subcloned into the pcDNA3.1/Zeo vector with a prolactin signal peptide for secretion and triple FLAG/M1 epitope cassette upstream of the multiple cloning site. […] For the estimation of adenylate cyclase activation by stresscopin and related hormones, transfected cells were seeded at a concentration of 100,000 cell/well in 48 well culture plates in DMEM/F12 medium containing 0.1% BSA and 2.5mM IBMX for 16 h. Contents of cAMP in whole cell lysate were determined using a cAMP radioimmunoassay.

[2] = test system: cultured rat anterior pituitary cells; test: ACTH release by cultured anterior pituitary cells in vitro; type: cell-based; settings: hormones 1 nM, 2 h at 37° C., FIG. 4a
Experimental: as §1, §2

[3] = molecular target: T1, CRHR2-containing rat cardiac A7r5 cells (Rattus norvegicus, UniProt P47866); test: cAMP production in CRHR2-containing rat cardiac A7r5 cells; type: cell-based; settings: harvested 16 h after treatment (FIG. 3a)
T1 construct: cells constitutively expressing CRH receptors; host or cells: A7r5 (rat)
Experimental: as §3, §4

[4] = test system: gastric emptying in food-restricted mice; test: Gastric emptying in food-restricted mice; type: in vivo; settings: i.p., 2 h after hormone treatment, FIG. 4e
Experimental: as §1
Effects on gastric emptying in food-restricted mice. To study the effects on gastric emptying, mice were deprived of food for 16 h with free access to water. The fasted mice were then given free access to preweighed pellets for 90 min. and were injected i.p. with different hormones or saline. The mice were deprived of food again after i.p. injection and sacrificed by cervical dislocation at 2 h. after injection. The stomach was excised at point of the pylorus and cardia before determination of its wet weight. Gastric emptying was calculated by comparison with stomach weight of control mice sacrificed at 0 h. following injection. See, Asakawa, A. et al. (1999) Gastroenterology 116:1287-1292.

[5] = test system: heat-induced paw edema in anaesthetized rats; test: Heat-induced paw edema formation in anaesthetized rats; type: in vivo, rat; settings: i.p., FIG. 4c
Experimental: as §1
Effects on heat-induced paw edema formation in anaesthetized rats. The anti-inflammatory effect of stresscopin and related peptides were assayed using an established model (Turnbull et al. (1996) Euro. J. Pharmacol. 303:213-216). Briefly, 5-week-old male Sprague-Dawley rats were injected with […] of the testing peptide and anaesthetized with ketamine (100 mg/Kg). Thirty min. later, paw edema was induced following a one minute exposure to hot water at 58° C. The animals were sacrificed 30 min later. Both paws were removed at the ankle joint and weighed. The degree of edema was estimated as the differences in weight gain between the heated and unheated paw divided by the weight of the unheated paw.

fasting mice = test: Food intake and body weight in food-restricted mice; type: in vivo; settings: for cumulative food intake: i.p., fasting mice, 2, 4 and 8 h after treatment, FIG. 4d; for Average body weight change/mouse / Average food intake/mouse: fasted animals, 2 h after treatment, N = 5
Experimental: as §1
Food intake and body weight in food-restricted mice. Six week-old male mice (20-25 g b.w.) of the inbreed Balb/C strain were housed individually in a regulated environment with 12L/12D light cycle. Before feeding tests, mice were deprived of food for 16 h with free access to water and injected with testing reagents i.p. at 10 AM the following day. Food intake was measured by placing preweighed pellets in the cage and weighing the uneaten pellets at 2, 4 and 8 h after injection. Body weight was also monitored at 0, 2, 4, and 8 h.

[6] = molecular target: T2, CRHR1-containing human retinoblastoma Y79 cells (Homo sapiens, UniProt P34998); test: cAMP production in CRHR1-containing human retinoblastoma Y79 cells; type: cell-based; settings: harvested 16 h after treatment (FIG. 3b)
T2 construct: cells constitutively expressing CRH receptors; host or cells: Y79 (human retinoblastoma)
T2 sequence (P34998 24-415): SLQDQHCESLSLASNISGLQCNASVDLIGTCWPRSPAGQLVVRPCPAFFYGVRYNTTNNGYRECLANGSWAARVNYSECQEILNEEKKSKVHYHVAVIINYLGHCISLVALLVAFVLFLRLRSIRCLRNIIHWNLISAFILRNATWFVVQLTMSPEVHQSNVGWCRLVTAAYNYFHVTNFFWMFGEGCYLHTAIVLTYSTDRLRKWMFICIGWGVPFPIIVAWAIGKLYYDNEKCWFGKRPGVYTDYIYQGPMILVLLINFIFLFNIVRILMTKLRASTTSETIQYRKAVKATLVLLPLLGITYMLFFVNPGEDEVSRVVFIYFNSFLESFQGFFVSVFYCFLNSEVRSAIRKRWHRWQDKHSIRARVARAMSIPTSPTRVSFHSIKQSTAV
Experimental: (§5) CRHR1-containing human retinoblastoma Y79 cells, FIG. 3c. recombinant CRHR2, FIG. 3d. recombinant CRHR2 and, FIG. 3e. recombinant CRHR1. Cells incubated with the test peptide or vehicle were harvested at 16 h after treatment and heated to 95° C. for 5 mm to inactivate phosphodiesterase activity before cAMP measurement. […] Data are the mean SEM (N=4). SCP1-0.1, stresscopin 1 (0.1 nM); SCP1, stresscopin 1 (1 nM); SCP1(2-43), truncated stresscopin 1 with the first amino acid deleted; SCP1 (3-43), truncated stresscopin 1 with 2-amino-acid deletion; SCP1 (4-43), truncated stresscopin 1 with 3-amino-acid deletion; SCP1 (5-43), truncated stresscopin 1 with 4-amino-acid deletion; SCP1 (6-43), truncated stresscopin 1 with 5-amino-acid deletion; SCP1-NA-0.1, full-length stresscopin 1 devoid of amidation at the C-terminus (0.1 nM); SCP1-NA, full-length stresscopin 1 devoid of amidation at the C-terminus (1 nM); UCN, urocortin. […] Data are mean SEM (N=3).

CRH R2 = test: Receptor binding assay, displacement of 125I-urocortin; settings: 293T cells transfected with CRHR2 isoforms (FIGS. 3g, 3h)
Experimental: as §3
Receptor Binding assay. […] After 60 min incubation at 37° C., the cell-associated ligand was estimated following centrifugation and repeated washing. Radioactivity of samples was determined in a GENESYS-counter (Laboratory Technologies, Inc., Maple Park, Ill.).

recombinant CRHR1 = molecular target: T3, recombinant CRHR1 (Homo sapiens, UniProt P34998); test: cAMP production by 293T cells transfected with recombinant CRHR1; type: cell-based; settings: 293T cells transiently transfected (FIG. 3e)
T3 construct: prolactin signal peptide (N); expressed in transfected cells; host or cells: human 293T cells, pcDNA3.1/Zeo vector
T3 sequence (P34998 24-415): T2 sequence (P34998 24-415)
Experimental: as §5

Sequence of recombinant CRHR2 (Q13324 35-411 limits assumed): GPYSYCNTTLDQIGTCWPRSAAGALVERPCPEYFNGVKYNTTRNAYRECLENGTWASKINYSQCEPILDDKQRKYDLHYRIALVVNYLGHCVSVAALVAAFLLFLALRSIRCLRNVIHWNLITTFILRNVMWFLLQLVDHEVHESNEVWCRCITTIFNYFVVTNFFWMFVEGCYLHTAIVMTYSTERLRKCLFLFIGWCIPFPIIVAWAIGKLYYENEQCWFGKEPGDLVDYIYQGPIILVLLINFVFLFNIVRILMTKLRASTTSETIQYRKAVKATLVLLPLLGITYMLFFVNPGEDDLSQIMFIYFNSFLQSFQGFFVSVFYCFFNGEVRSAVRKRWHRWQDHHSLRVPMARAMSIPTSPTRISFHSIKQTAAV
T1 sequence (P47866 1-431 isoform P47866-2): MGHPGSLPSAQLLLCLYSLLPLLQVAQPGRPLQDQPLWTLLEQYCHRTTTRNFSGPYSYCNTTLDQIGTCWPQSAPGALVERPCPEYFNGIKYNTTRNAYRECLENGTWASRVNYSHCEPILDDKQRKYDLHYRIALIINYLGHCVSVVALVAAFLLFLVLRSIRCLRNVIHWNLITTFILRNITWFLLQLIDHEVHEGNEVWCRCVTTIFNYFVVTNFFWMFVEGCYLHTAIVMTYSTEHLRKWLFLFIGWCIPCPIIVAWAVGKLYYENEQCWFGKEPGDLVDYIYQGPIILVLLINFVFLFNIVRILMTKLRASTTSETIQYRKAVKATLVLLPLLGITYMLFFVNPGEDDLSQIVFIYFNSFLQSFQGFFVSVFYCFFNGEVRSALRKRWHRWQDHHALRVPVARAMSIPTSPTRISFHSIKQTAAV

CRH: corticotropin releasing hormone, 41-amino acid peptide; purchased from Sigma Biochemicals [reference compound]
ACTH release in vivo [1]: stimulated the release of ACTH | cAMP production mediated by recombinant CRHR2 (recombinant CRHR2): stimulated cAMP production | ACTH release in vitro [2]: stimulated the release of ACTH | cAMP production [3]: stimulated cAMP production | gastric emptying activity [4]: suppressed gastric emptying activity | heat-induced edema formation ([5]; 20 nmoles/kg): suppressed heat-induced edema formation | cumulative food intake (fasting mice): dose-dependently decreased food intake

SCP1-NA: full-length stresscopin 1 devoid of amidation at the C-terminus (HPGSRIVLSLDVILGLLQILLEQARARAAREQATTNARILARV-OH)
reduction in ability to stimulate cAMP production (recombinant CRHR2; compared to amidated stresscopin 1): > 50 fold

stresscopin 1: mature 43 amino acid peptide, SEQ ID NO:3, derived from a 112 amino acid precursor; selective CRH-R2 ligand (HPGSRIVLSLDVILGLLQILLEQARARAAREQATTNARILARV; listed as Homo sapiens)
cAMP production [6]: ineffective | ability to bind CRHR2 (displacement of labeled urocortin) (CRH R2): bind | cAMP production mediated by recombinant CRHR2 (recombinant CRHR2): potent agonists | higher potency as compared to stresscopin 2 and the pufferfish peptide (recombinant CRHR2; activation of type-2 CRH receptors, cAMP): > 10 fold | cAMP production [3]: stimulated cAMP production | gastric emptying activity [4]: suppressed gastric emptying activity | heat-induced edema formation ([5]; 20 nmoles/kg): suppressed heat-induced edema formation | Average body weight change/mouse (fasting mice; 20 nM): 0.31 ± 0.14 grams | Average food intake/mouse (fasting mice; 20 nM): 0.185 grams | cumulative food intake (fasting mice): dose-dependently decreased food intake

stresscopin 2: mature peptide of 40 amino acids, SEQ ID NO:6, derived from a 161 amino acid precursor protein (TKFTLSLDVPTNIMNLLFNIAKAKNLRAQAAANAHLMAQI; listed as Homo sapiens)
ability to bind CRHR2 (displacement of labeled urocortin) (CRH R2): bind | cAMP production mediated by recombinant CRHR2 (recombinant CRHR2): potent agonists | gastric emptying activity [4]: suppressed gastric emptying activity | heat-induced edema formation ([5]; 100 nmoles/kg): suppressed heat-induced edema formation | Average body weight change/mouse (fasting mice; 2 nM): −0.19 ± 0.24 grams | Average food intake/mouse (fasting mice; 2 nM): 0.176 grams | Average body weight change/mouse (fasting mice; 20 nM): 0.11 ± 0.1 grams | Average food intake/mouse (fasting mice; 20 nM): 0.152 grams | cumulative food intake (fasting mice): dose-dependently decreased food intake

urocortin: 40 amino acid peptide, ligand for the CRH receptors; purchased from Sigma Biochemicals (DNPSLSIDLTFHLLRTLLELARTQSQRERAEQNRIIFDSV; ends and bridges not checked; UniProt P55089 83-122, looked up) [reference compound]
ACTH release in vivo [1]: stimulated the release of ACTH | cAMP production [6]: stimulated cAMP production | cAMP production mediated by recombinant CRHR2 (recombinant CRHR2): stimulated cAMP production | cAMP production mediated by recombinant CRHR1 (recombinant CRHR1): stimulated cAMP production | ACTH release in vitro [2]: stimulated the release of ACTH | cAMP production [3]: stimulated cAMP production | gastric emptying activity [4]: suppressed gastric emptying activity | heat-induced edema formation ([5]; 20 nmoles/kg): suppressed heat-induced edema formation | cumulative food intake (fasting mice): dose-dependently decreased food intake
